Our source for the EC50 values is patent US20230295201A1 (Gilead Sciences, Inc., priority 2020, published 2023).

Read-outs that look alike come from different tables or passages of the source.

The subject of one assay is RSV A2. Description: RSV NHBE EC50 (RSV A2 antiviral assay in normal human bronchial epithelial cells). In kind it is cell-based. Particulars: read-out: RSV NHBE EC50. On the procedure:
Normal human bronchial epithelial (NHBE) cells were purchased from Lonza (Walkersville, MD, Cat #CC-2540) and cultured in Bronchial Epithelial Growth Media (BEGM) (Lonza, Walkersville, MD, Cat #CC-3170). The cells were passaged 1-2 times per week to maintain <80% confluency. The NHBE cells were discarded after 6 passages in culture.
To conduct the RSV A2 antiviral assay, NHBE cells were plated in 96-well plates at a density of 7,500 cells per well in BEGM and allowed to attach overnight at 37° C. Following attachment, 100 μL of cell culture media was removed and 3-fold serially diluted compound was added using a Hewlett-Packard D300 Digital Dispenser. The final concentration of DMSO was normalized to 0.05%. Following compound addition, the NHBE cells were infected by the addition of 100 μL of RSV A2 at a titer of 1×10^4.5 tissue culture infectious doses/mL in BEGM and then incubated at 37° C. for 4 days. […] The mixtures were incubated for 10 minutes at 25° C., and the luminescence signal was quantified on an Envision luminescence plate reader.

The subject of the next assay is RSV strain A2. Put plainly: RSV HEp-2 EC50 (infectious cytopathic cell protection assay). In kind it is cell-based. Particulars: read-out: RSV HEp-2 EC50. On the procedure:
Antiviral activity against RSV is determined using an infectious cytopathic cell protection assay in HEp-2 cells. In this assay, compounds inhibiting viral infection and/or replication produce a cytoprotective effect against the virus-induced cell killing that can be quantified using a cell viability reagent. The techniques used here are novel adaptations of methods described in published literature (Chapman et al., Antimicrob Agents Chemother. 2007, 51(9):3346-53.)
HEp-2 cells are obtained from ATCC (Manassas, VI) and maintained in MEM media supplemented with 10% fetal bovine serum and penicillin/streptomycin. Cells are passaged twice a week and kept at subconfluent stage. Commercial stock of RSV strain A2 (Advanced Biotechnologies, Columbia, MD) is titered before compound testing to determine the appropriate dilution of the virus stock that generates desirable cytopathic effect in HEp-2 cells.
For antiviral tests, HEp-2 cells are grown in large cell culture flasks to near confluency but not fully so. The compounds to be tested are prediluted in DMSO in 384-well compound dilution plates, either in an 8 or 40 sample per plate standardized dose response format. 3-fold serial dilution increments of each test compound are prepared in the plates and test samples are transferred via acoustic transfer apparatus (Echo, Labcyte) at 100 nL per well into cell culture assay 384-well plates. Each compound dilution is transferred in single or quadruplicate samples into dry assay plates, which are stored until assay is ready to go. The positive and negative controls are laid out in opposite on ends of the plate in vertical blocks (1 column).
Subsequently, an infectious mixture is prepared using an appropriate dilution of virus stock previously determined by titration with cells at a density of 50,000/ml and 20 µL/well is added to test plates w/compounds via automation (uFlow, Biotek). Each plate includes negative and positive controls (16 replicates each) to create 0% and 100% virus inhibition standards, respectively. Following the infection with RSV, testing plates are incubated for 4 days in a 37° C. cell culture incubator. After the incubation, a cell viability reagent, Cell TiterGlo (Promega, Madison, WI) is added to the assay plates, which are incubated briefly, and a luminescent readout is measured (Envision, Perkin Elmer) in all the assay plates. The RSV-induced cytopathic effect, percentage inhibition, is determined from the levels of remaining cell viability. […] Various potent anti-RSV tool compounds are used as positive controls for antiviral activity.
Background: Damage to the host cells serves as the signal in cytopathic effect assays.

The mark [1] stands for this setting: human respiratory syncytial virus, NHBE, 96 h, NHBE cells, RSV A2, 4 days.
Setting [2] is: human respiratory syncytial virus, HEp-2, 96 h, HEp-2 cells, RSV A2, 4 days.
Setting [3] is: human respiratory syncytial virus, NHBE, 96 h.

As usually defined, the EC50 is the midpoint of the concentration-response curve. For the compound `COCCCOC(=O)[C@H](C)NP(=O)(OC[C@@]1(C#N)O[C@@H](c2ccc3c(N)ncnn23)[C@H](O)[C@@H]1O)Oc1ccccc1` (mixture of isomers) [Example 58, 3-Methoxypropyl ((((2R,3S,4R,5S)-5-(4-aminopyrrolo[2,1-f][1,2,4]triazin-7-yl)-2-cyano-3,4-dihydroxytetrahydrofuran-2-yl)methoxy)(phenoxy)phosphoryl)-L-alaninate], in the assay with RSV A2 (setting [1]), the EC50 came to 917 nM.
Regarding `C[C@H](NP(=O)(OC[C@@]1(C#N)O[C@@H](c2ccc3c(N)ncnn23)[C@H](O)[C@@H]1O)Oc1ccccc1)C(=O)O[C@H]1CCOC1` (mixture of isomers) [Example 64, (S)-Tetrahydrofuran-3-yl ((((2R,3S,4R,5S)-5-(4-aminopyrrolo[2,1-f][1,2,4]triazin-7-yl)-2-cyano-3,4-dihydroxytetrahydrofuran-2-yl)methoxy)(phenoxy)phosphoryl)-L-alaninate], the values for the half-maximal effective concentration (EC50) in the assay with RSV strain A2 (setting [2]) and in the assay on RSV A2 (setting [1]) were 350 nM and 3500 nM, respectively.
On to `CCC(CC)COC(=O)[C@H](CC(C)C)NP(=O)(OC[C@@]1(C#N)O[C@@H](c2ccc3c(N)ncnn23)[C@H](O)[C@@H]1O)Oc1ccccc1` (mixture of isomers) [Example 127, (2S)-2-ethylbutyl 2-(((((2R,3S,4R,5S)-5-(4-aminopyrrolo[2,1-f][1,2,4]triazin-7-yl)-2-cyano-3,4-dihydroxytetrahydrofuran-2-yl)methoxy)(phenoxy)phosphoryl)amino)-4-methylpentanoate], for which the figures for the EC50 in the assay on RSV strain A2 (setting [2]) and with RSV A2 (setting [1]) were 1730 nM and 434 nM, respectively.
For the compound `CC(C)(C)C(=O)OCCNP(=O)(OCC1(C#N)OC(c2ccc3c(N)ncnn23)C(O)C1O)Oc1ccccc1` (single isomer, unassigned) [Example 13], the EC50 in the assay on RSV strain A2 (HEp-2 cells, RSV A2, 4 days) came out at 93 nM; in the assay on RSV A2 (NHBE cells, RSV A2, 4 days) it was 30 nM.
Consider `C[C@H](N[P@@](=O)(OC[C@@]1(C#N)O[C@@H](c2ccc3c(N)ncnn23)[C@H](O)[C@@H]1O)Oc1ccccc1)C(=O)O[C@H]1CC[C@H](C(C)(C)C)CC1` (single isomer, unassigned) [Example 23], for which the results for the EC50 with RSV strain A2 (setting [2]) and in the assay with RSV A2 (setting [1]) were 207 nM and 34 nM, respectively.
On to `COC(=O)[C@H](C)NP(=O)(OC[C@@]1(C#N)O[C@@H](c2ccc3c(N)ncnn23)[C@H](O)[C@@H]1O)Oc1ccc(C[C@H](N)C(=O)OC)cc1` (single isomer, unassigned) [Example 63], for which the EC50 is 4070 nM in the assay with RSV strain A2 (HEp-2 cells, RSV A2, 4 days) and over 5000 nM with RSV A2 (NHBE cells, RSV A2, 4 days).
Regarding `CCOCCOCCOC(=O)[C@H](C)NP(=O)(OC[C@@]1(C#N)O[C@@H](c2ccc3c(N)ncnn23)[C@H](O)[C@@H]1O)Oc1ccccc1` (single isomer, unassigned) [Example 75], in the assay on RSV strain A2 (setting [2]), the EC50 was determined as 1260 nM.
In the case of `CCC(CC)COC(=O)[C@@H](C)NP(=O)(OC[C@@]1(C#N)O[C@@H](c2ccc3c(N)ncnn23)[C@H](O)[C@@H]1O)Oc1ccccc1` (single isomer, unassigned) [Example 83], the EC50 was found to be 5300 nM in the assay with RSV strain A2 (HEp-2 cells, RSV A2, 4 days) and 953 nM with RSV A2 (NHBE cells, RSV A2, 4 days).
Turning to `CC[C@H](NP(=O)(OC[C@@]1(C#N)O[C@@H](c2ccc3c(N)ncnn23)[C@H](O)[C@@H]1O)Oc1ccccc1)C(=O)OC1CCCC1` (single isomer, unassigned) [Example 110], the EC50 with RSV strain A2 (HEp-2 cells, RSV A2, 4 days) stood at 281 nM; in the assay with RSV A2 (NHBE cells, RSV A2, 4 days), 339 nM.
Take `CCC(CC)COC(=O)[C@H](CC(C)C)NP(=O)(OC[C@@]1(C#N)O[C@@H](c2ccc3c(N)ncnn23)[C@H](O)[C@@H]1O)Oc1ccccc1` (single isomer, unassigned) [Example 128]: the EC50 worked out at 1870 nM in the assay on RSV strain A2 (HEp-2 cells, RSV A2, 4 days) and 164 nM in the assay with RSV A2 (NHBE cells, RSV A2, 4 days).
For `C[C@H](NP(=O)(OC[C@@]1(C#N)O[C@@H](c2ccc3c(N)ncnn23)[C@H](O)[C@@H]1O)Oc1ccccc1)C(=O)O[C@H]1CC[C@@H](C(F)(F)F)CC1` (single isomer, unassigned) [Example 179], in that order: 591 nM and over 4800 nM.
For the compound `C[C@H](NP(=O)(OC[C@@]1(C#N)O[C@@H](c2ccc3c(N)ncnn23)[C@H](O)[C@@H]1O)Oc1ccccc1)C(=O)OCC(C)(C)C(F)(F)F` (single isomer, unassigned) [Example 261], in the assay on RSV strain A2 (setting [2]), the EC50 came to 34 nM.
In the case of `CCOC(=O)[C@H](C)NP(=O)(OC[C@@]1(C#N)O[C@@H](c2ccc3c(N)ncnn23)[C@H](O)[C@@H]1O)Oc1ccc(C(C)(C)C)cc1` (single isomer, unassigned) [Example 264], the EC50 in the assay with RSV strain A2 (HEp-2 cells, RSV A2, 4 days) was 41 nM.
As for `COC(=O)[C@H](C)NP(=S)(OC[C@@]1(C#N)O[C@@H](c2ccc3c(N)ncnn23)[C@H](O)[C@@H]1O)Oc1ccccc1` (stereo partly drawn) [Example 71, methyl ((((2R,3S,4R,5S)-5-(4-aminopyrrolo[2,1-f][1,2,4]triazin-7-yl)-2-cyano-3,4-dihydroxytetrahydrofuran-2-yl)methoxy)(phenoxy)phosphorothioyl)-L-alaninate], the EC50 was 3140 nM in the assay with RSV strain A2 (human respiratory syncytial virus, HEp-2, 96 h) and over 5000 nM in the assay on RSV A2 (setting [3]).
Consider `C[C@H](N[P@@](=O)(OC[C@@]1(C#N)O[C@@H](c2ccc3c(N)ncnn23)[C@H](O)[C@@H]1O)Oc1ccccc1)C(=O)OCC(C)(C)C` [Example 93], for which the EC50 with RSV strain A2 (HEp-2 cells, RSV A2, 4 days) came to 2840 nM; in the assay with RSV A2 (NHBE cells, RSV A2, 4 days), 85 nM.
Turning to `C[C@H](NP(=O)(OC[C@@]1(C#N)O[C@@H](c2ccc3c(N)ncnn23)[C@H](O)[C@@H]1O)Oc1ccccc1)C(=O)NC1CCCCC1` (stereo partly drawn) [Example 138, ((2R,3S,4R,5S)-5-(4-aminopyrrolo[2,1-f][1,2,4]triazin-7-yl)-2-cyano-3,4-dihydroxytetrahydrofuran-2-yl)methyl phenyl ((S)-1-(cyclohexylamino)-1-oxopropan-2-yl)phosphoramidate], the EC50 in the assay on RSV strain A2 (setting [2]) is 38500 nM; in the assay with RSV A2 (setting [1]), over 5000 nM.
For the compound `CC1CCC(OC(=O)C(C)NP(=O)(OCC2(C#N)OC(c3ccc4c(N)ncnn34)C(O)C2O)Oc2ccccc2)CC1` (centres unmarked) [Example 144], the half-maximal effective concentration (EC50) in the assay on RSV strain A2 (HEp-2 cells, RSV A2, 4 days) came to 614 nM; in the assay with RSV A2 (NHBE cells, RSV A2, 4 days), 65 nM.
Consider `CC[C@H](NP(=O)(OC[C@@]1(C#N)O[C@@H](c2ccc3c(N)ncnn23)[C@H](O)[C@@H]1O)Oc1ccccc1)C(=O)OCC(C)(C)C` (stereo partly drawn) [Example 157, neopentyl (2S)-2-(((((2R,3S,4R,5S)-5-(4-aminopyrrolo[2,1-f][1,2,4]triazin-7-yl)-2-cyano-3,4-dihydroxytetrahydrofuran-2-yl)methoxy)(phenoxy)phosphoryl)amino)butanoate], for which the EC50 in the assay with RSV strain A2 (setting [2]) was determined as 972 nM; with RSV A2 (setting [1]), 163 nM.
`CCC(CC)COC(=O)[C@H](C)NP1(=O)OC[C@@]2(C#N)O[C@@H](c3ccc4c(N)ncnn34)[C@H](O)[C@@H]2O1` (stereo partly drawn) [Example 169, 2-ethylbutyl ((4aR,6S,7S,7aS)-6-(4-aminopyrrolo[2,1-f][1,2,4]triazin-7-yl)-4a-cyano-7-hydroxy-2-oxidotetrahydro-4H-furo[3,2-d][1,3,2]dioxaphosphinin-2-yl)-L-alaninate]: the EC50 in the assay on RSV strain A2 (human respiratory syncytial virus, 96 h, HEp-2 cells, RSV A2, 4 days) came to 524 nM; in the assay on RSV A2 (human respiratory syncytial virus, 96 h, NHBE cells, RSV A2, 4 days), 965 nM.
As to `CCOC(=O)c1ccccc1OP1(=O)OC[C@@]2(C#N)O[C@@H](c3ccc4c(N)ncnn34)[C@H](O)[C@@H]2O1` (stereo partly drawn) [Example 224, ethyl 2-(((4aR,6S,7S,7aS)-6-(4-aminopyrrolo[2,1-f][1,2,4]triazin-7-yl)-4a-cyano-7-hydroxy-2-oxidotetrahydro-4H-furo[3,2-d][1,3,2]dioxaphosphinin-2-yl)oxy)benzoate], in the assay with RSV A2 (setting [3]), the EC50 stood at 2830 nM.
